Results as given in ChEMBL document CHEMBL2010687 (Bioorg Med Chem Lett, 2012).

How the values were obtained:
[1] = Oral bioavailability in Sprague-Dawley rat at 2 mg/kg; type: ADME, organism-based; conditions: in vivo
[2] = molecular target: T1, Growth hormone secretagogue receptor type 1 (Homo sapiens, UniProt Q92847); experiment: Displacement of [125I]Ghrelin from human GHSR1a receptor
[3] = molecular target: T1, Growth hormone secretagogue receptor type 1; experiment: Antagonist activity at human GHSR1a receptor assessed as intracellular Ca2+ concentration by aequorin luminescent assay; type: functional, cell-based
[4] = Clearance in Sprague-Dawley rat at 2 mg/kg, po; type: ADME, organism-based; parameters: dose 2 mg/kg, route oral; conditions: in vivo
[5] = Metabolic stability in rat liver S9 fraction assessed as compound remaining after 1 hr; type: ADME, subcellular; conditions: read-out: Stability
[6] = molecular target: Growth hormone secretagogue receptor type 1 (Mus musculus, UniProt Q99P50); experiment: Antagonist activity at mouse GHSR1 receptor assessed as intracellular Ca2+ concentration by aequorin luminescent assay; type: functional, cell-based
[7] = AUC in Sprague-Dawley rat at 2 mg/kg, po; type: ADME, organism-based; parameters: dose 2 mg/kg, route oral; conditions: plasma
[8] = Metabolic stability in human liver S9 fraction assessed as compound remaining after 1 hr; type: ADME, subcellular; conditions: read-out: Stability

T1 sequence (Q92847 whole entry): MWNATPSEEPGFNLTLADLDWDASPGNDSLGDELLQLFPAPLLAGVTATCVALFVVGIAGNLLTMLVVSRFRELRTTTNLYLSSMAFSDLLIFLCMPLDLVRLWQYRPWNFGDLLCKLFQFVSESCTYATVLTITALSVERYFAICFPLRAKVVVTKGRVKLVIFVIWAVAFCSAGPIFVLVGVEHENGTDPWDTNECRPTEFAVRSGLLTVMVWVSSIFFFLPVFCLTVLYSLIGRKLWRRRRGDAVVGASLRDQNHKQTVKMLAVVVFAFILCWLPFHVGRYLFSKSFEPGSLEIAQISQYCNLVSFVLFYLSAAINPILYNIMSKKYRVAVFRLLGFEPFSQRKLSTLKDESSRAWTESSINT
Growth hormone secretagogue receptor type 1 (Mus musculus, UniProt Q99P50), sequence (Q99P50 whole entry): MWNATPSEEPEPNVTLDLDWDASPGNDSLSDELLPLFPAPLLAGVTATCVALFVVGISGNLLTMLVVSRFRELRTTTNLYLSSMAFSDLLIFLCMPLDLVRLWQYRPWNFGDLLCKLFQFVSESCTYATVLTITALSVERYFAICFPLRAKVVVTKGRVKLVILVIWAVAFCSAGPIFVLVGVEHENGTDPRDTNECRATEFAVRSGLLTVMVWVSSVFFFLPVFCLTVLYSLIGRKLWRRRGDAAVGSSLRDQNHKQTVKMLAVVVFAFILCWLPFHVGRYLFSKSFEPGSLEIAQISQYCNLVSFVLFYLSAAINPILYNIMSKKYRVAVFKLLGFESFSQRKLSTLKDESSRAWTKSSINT

IC50 [3] [nM]	remaining at 1 h [5] [%]	remaining at 1 h [8] [%]	Compound	further results
8	19	30	CC(C)[C@H](C(=O)NC1CCN(Cc2ccccc2)CC1)N1CC(=O)Nc2ccc(Oc3ccccc3)cc2C1=O	bioavailability [1]: 6%; Ki [2]: 4.4 nM; CL/F [4]: 143 mL/min/kg; IC50 [6]: 7 nM; AUC [7]: 132 ng·h/mL
11	–	–	CC(C)[C@H](C(=O)NC1CCN(Cc2ccccc2)CC1)N1CC(=O)Nc2ccc(Oc3ccc(F)cc3)cc2C1=O	–
7	–	–	Cc1ccc(Oc2ccc3c(c2)C(=O)N([C@@H](C(=O)NC2CCN(Cc4ccccc4)CC2)C(C)C)CC(=O)N3)cc1	–
3	3	5	Cc1ccccc1Oc1ccc2c(c1)C(=O)N([C@@H](C(=O)NC1CCN(Cc3ccccc3)CC1)C(C)C)CC(=O)N2	–
171	–	–	CC(C)[C@H](C(=O)NC1CCN(Cc2ccccc2)CC1)N1CC(=O)Nc2ccc(Oc3cccc(Cl)c3)cc2C1=O	–
28	–	–	CC(C)[C@H](C(=O)NC1CCN(Cc2ccccc2)CC1)N1CC(=O)Nc2ccc(Oc3ccc(Cl)cc3)cc2C1=O	–
26	19	26	COc1ccccc1Oc1ccc2c(c1)C(=O)N([C@@H](C(=O)NC1CCN(Cc3ccccc3)CC1)C(C)C)CC(=O)N2	–
143	10	22	COc1cccc(Oc2ccc3c(c2)C(=O)N([C@@H](C(=O)NC2CCN(Cc4ccccc4)CC2)C(C)C)CC(=O)N3)c1	–
79	–	–	COc1ccc(Oc2ccc3c(c2)C(=O)N([C@@H](C(=O)NC2CCN(Cc4ccccc4)CC2)C(C)C)CC(=O)N3)cc1	–
0.2	3	5	Cc1cc(F)ccc1Oc1ccc2c(c1)C(=O)N([C@@H](C(=O)NC1CCN(Cc3ccccc3)CC1)C(C)C)CC(=O)N2	–
1	–	–	Cc1cccc(C)c1Oc1ccc2c(c1)C(=O)N([C@@H](C(=O)NC1CCN(Cc3ccccc3)CC1)C(C)C)CC(=O)N2	–
314	–	–	O=C1CN(CC(=O)NC2CCN(Cc3ccccc3)CC2)C(=O)c2cc(Oc3ccccc3)ccc2N1	–
12	–	–	O=C1CN([C@@H](C(=O)NC2CCN(Cc3ccccc3)CC2)C2CC2)C(=O)c2cc(Oc3ccccc3)ccc2N1	–
196	–	–	CC(C)[C@@H](C(=O)NC1CCN(Cc2ccccc2)CC1)N1CC(=O)Nc2ccc(Oc3ccccc3)cc2C1=O	–
> 10000	95	23	CC(C)[C@H](C(=O)NC1CCC(Cc2ccccc2)CC1)N1CC(=O)Nc2ccc(Oc3ccccc3)cc2C1=O (stereo not given in full)	–
8	72	62	CC(C)[C@H](C(=O)N1CCC(NCc2ccccc2)CC1)N1CC(=O)Nc2ccc(Oc3ccccc3)cc2C1=O	–
2.5	46	27	CC(C)[C@H](C(=O)N1CCC(N[C@H](C)c2ccccc2)CC1)N1CC(=O)Nc2ccc(Oc3ccccc3)cc2C1=O	–
16.5	48	19	CC(C)[C@H](C(=O)N1CCC(NC(C)(C)c2ccccc2)CC1)N1CC(=O)Nc2ccc(Oc3ccccc3)cc2C1=O	–
2.5	28	30	CC(C)[C@H](C(=O)N1CCC(N[C@H](C)C2CCCCC2)CC1)N1CC(=O)Nc2ccc(Oc3ccccc3)cc2C1=O	–
4.1	–	76	CC(C)[C@H](C(=O)N1CCC(NCCC2CCCCC2)CC1)N1CC(=O)Nc2ccc(Oc3ccccc3)cc2C1=O	–
313	–	–	CC(C)[C@H](C(=O)N1CCC(NCCC2CCOCC2)CC1)N1CC(=O)Nc2ccc(Oc3ccccc3)cc2C1=O	–
50	71	86	CC(C)[C@H](C(=O)N1CCC(NCC2CC2)CC1)N1CC(=O)Nc2ccc(Oc3ccccc3)cc2C1=O	–
> 10000	–	–	CC(C)[C@H](C(=O)NC1CCNCC1)N1CC(=O)Nc2ccc(Oc3ccccc3)cc2C1=O	–
> 10000	–	–	CC(C)[C@H](C(=O)NC1CCN(C(=O)c2ccccc2)CC1)N1CC(=O)Nc2ccc(Oc3ccccc3)cc2C1=O	–
6	–	–	CC(C)[C@H](C[C@H]1CC[C@@H](NCc2ccccc2)CC1)N1CC(=O)Nc2ccc(Oc3ccccc3)cc2C1=O	–
20	27	68	CC(C)[C@H](C[C@H]1CC[C@@H](NCC2CC2)CC1)N1CC(=O)Nc2ccc(Oc3ccc(F)cc3F)cc2C1=O	–
2	97	92	CC(C)[C@H](C[C@H]1CC[C@@H](NCC2CC2)CC1)N1CCCc2ccc(Oc3ccc(F)cc3F)cc2C1=O	bioavailability [1]: 39%; CL/F [4]: 10 mL/min/kg; AUC [7]: 618 ng·h/mL
0.3	65	70	CC(C)[C@H](C(=O)N1CCC(NCc2ccccc2)CC1)N1CC(=O)Nc2ccc(Oc3ccc(F)cc3F)cc2C1=O	–
